According to ChEMBL document CHEMBL5465560, “Selectivity Literature for EUbOPEN Chemogenomic Library” (2024):
One block for each compound: values may come before it.

Tests used:
[1] = molecular target: Serine/threonine-protein kinase PAK 1 (Homo sapiens) (UniProt Q13153); assay: Selectivity interaction (KinomeScan (DiscoverX)) EUB0001079a PAK1; details: at 1 µM
[2] = molecular target: Serine/threonine-protein kinase 32C (Homo sapiens) (UniProt Q86UX6); assay: Selectivity interaction (KinomeScan (DiscoverX)) EUB0001079a STK32C; details: at 1 µM
Chain of Serine/threonine-protein kinase 32C (Homo sapiens) (Q86UX6 whole entry): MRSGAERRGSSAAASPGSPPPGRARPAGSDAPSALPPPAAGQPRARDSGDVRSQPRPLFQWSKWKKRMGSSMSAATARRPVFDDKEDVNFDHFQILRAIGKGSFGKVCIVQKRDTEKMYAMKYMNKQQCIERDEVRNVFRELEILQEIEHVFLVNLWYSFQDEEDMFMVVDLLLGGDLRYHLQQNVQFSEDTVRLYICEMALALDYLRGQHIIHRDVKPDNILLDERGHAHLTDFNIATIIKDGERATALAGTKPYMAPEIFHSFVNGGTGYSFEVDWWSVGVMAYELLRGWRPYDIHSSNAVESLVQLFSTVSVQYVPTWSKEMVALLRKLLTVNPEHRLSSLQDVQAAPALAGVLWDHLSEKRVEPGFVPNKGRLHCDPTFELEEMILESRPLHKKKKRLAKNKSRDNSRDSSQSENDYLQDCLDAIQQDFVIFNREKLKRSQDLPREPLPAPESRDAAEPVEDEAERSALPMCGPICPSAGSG

[3] = molecular target: Rho-associated protein kinase 2 (Homo sapiens, UniProt O75116); assay: Selectivity interaction (KinomeScan (DiscoverX)) EUB0001079a ROCK2; details: at 1 µM
[4] = molecular target: Tyrosine-protein kinase Fes/Fps (Homo sapiens) (UniProt P07332); assay: Selectivity interaction (ActivX KiNativ screen (ex vivo kinase selectivity in human PBMCs)) EUB0001619a FES; format: cell-based; details: PBMC, at 1 µM
[5] = molecular target: LIM domain kinase 1 (Homo sapiens) (UniProt P53667); assay: Selectivity interaction (KinomeScan (DiscoverX)) EUB0001619a LIMK1; details: at 1 µM
[6] = molecular target: Microtubule-associated serine/threonine-protein kinase 1 (Homo sapiens) (UniProt Q9Y2H9); assay: Selectivity interaction (KinomeScan (DiscoverX)) EUB0001619a MAST1; details: at 1 µM
[7] = molecular target: Cyclin-dependent kinase-like 3 (Homo sapiens) (UniProt Q8IVW4); assay: Selectivity interaction (KinomeScan (DiscoverX)) EUB0000045b CDKL3
Chain of Cyclin-dependent kinase-like 3 (Homo sapiens) (Q8IVW4 whole entry, looked up): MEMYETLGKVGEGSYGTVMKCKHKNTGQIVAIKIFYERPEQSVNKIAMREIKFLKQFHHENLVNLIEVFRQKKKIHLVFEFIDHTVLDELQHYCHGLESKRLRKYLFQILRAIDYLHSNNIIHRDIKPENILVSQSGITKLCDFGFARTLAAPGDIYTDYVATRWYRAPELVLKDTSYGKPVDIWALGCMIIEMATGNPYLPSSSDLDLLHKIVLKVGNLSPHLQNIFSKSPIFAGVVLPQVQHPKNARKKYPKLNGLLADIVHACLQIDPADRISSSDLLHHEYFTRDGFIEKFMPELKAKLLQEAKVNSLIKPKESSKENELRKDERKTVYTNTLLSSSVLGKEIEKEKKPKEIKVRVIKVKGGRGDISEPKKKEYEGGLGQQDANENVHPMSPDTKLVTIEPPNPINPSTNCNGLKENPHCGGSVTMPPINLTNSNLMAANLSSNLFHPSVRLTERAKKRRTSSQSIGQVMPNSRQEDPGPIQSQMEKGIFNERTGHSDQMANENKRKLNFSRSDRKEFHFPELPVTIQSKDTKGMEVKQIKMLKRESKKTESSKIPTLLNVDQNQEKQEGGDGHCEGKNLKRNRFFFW

[8] = molecular target: Death-associated protein kinase 1 (Homo sapiens, UniProt P53355); assay: Selectivity interaction (Upstate Kinase Profiler service (Millipore)) EUB0000056c DAPK1; details: at 1 µM
[9] = molecular target: T1, Histone-lysine N-methyltransferase SETD7 (Homo sapiens) (UniProt Q8WTS6); details: at 10 µM
T1 sequence (whole entry): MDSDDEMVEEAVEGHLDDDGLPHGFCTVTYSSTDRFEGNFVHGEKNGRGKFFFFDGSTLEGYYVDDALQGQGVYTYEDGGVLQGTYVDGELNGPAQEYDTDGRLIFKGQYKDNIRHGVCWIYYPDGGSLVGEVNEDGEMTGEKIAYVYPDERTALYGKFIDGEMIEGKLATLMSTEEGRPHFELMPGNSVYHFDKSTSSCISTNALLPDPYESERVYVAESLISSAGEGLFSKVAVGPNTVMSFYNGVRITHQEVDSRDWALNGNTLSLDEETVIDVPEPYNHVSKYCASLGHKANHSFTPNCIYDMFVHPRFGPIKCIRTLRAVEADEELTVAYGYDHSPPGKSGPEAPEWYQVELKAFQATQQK

[10] = molecular target: Tyrosine-protein kinase Fyn (Homo sapiens) (UniProt P06241); details: at 10 µM
[11] = molecular target: T2, Protein kinase C iota type (Homo sapiens) (UniProt P41743); assay: Selectivity interaction (Kinase panel (Invitrogen)) EUB0000639a PRKCI; details: at 200 nM
T2 sequence (whole entry): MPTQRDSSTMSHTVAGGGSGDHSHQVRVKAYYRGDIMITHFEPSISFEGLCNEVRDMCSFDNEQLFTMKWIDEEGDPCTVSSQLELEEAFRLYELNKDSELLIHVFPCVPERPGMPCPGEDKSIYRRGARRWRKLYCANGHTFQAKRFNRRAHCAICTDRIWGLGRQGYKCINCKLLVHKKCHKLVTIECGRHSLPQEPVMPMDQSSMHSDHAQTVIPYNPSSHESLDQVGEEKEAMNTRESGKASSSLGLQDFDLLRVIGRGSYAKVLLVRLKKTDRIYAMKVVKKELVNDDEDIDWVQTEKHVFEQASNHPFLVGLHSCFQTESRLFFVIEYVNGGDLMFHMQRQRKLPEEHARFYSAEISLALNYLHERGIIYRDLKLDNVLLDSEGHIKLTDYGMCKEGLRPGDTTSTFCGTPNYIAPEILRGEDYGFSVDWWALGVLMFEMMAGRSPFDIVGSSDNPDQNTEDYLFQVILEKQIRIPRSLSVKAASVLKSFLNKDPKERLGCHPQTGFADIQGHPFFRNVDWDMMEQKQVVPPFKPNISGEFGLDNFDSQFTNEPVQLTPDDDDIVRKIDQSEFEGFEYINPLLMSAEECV

[12] = molecular target: Cyclin-dependent kinase 5 (Homo sapiens, UniProt Q00535); assay: Selectivity interaction (ActivX KiNativ screen (kinase selectivity in THP-1 cell lysates)) EUB0000639a CDK5; format: subcellular; details: lysate, at 5 µM
[13] = molecular target: Serine/threonine-protein kinase 38 (Homo sapiens) (UniProt Q15208); assay: Selectivity interaction (KinomeScan (DiscoverX)) EUB0000229b STK38; details: at 10 µM
Chain of Serine/threonine-protein kinase 38 (Homo sapiens) (Q15208 2-465 limits assumed): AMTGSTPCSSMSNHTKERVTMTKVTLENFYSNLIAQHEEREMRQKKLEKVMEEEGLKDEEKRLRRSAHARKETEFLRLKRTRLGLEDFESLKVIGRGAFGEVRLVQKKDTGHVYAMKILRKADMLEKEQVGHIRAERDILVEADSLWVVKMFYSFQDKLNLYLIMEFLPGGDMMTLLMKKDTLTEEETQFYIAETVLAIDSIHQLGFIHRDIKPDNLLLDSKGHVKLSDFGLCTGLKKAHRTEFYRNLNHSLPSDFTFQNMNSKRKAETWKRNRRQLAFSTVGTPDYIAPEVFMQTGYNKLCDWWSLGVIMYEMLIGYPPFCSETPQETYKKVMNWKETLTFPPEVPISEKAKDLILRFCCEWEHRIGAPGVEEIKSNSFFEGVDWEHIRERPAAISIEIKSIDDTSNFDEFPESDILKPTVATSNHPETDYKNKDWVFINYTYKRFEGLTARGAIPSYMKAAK

[14] = molecular target: Ribosomal protein S6 kinase alpha-3 (Homo sapiens, UniProt P51812); assay: Selectivity interaction (KinomeScan (DiscoverX)) EUB0000229b RPS6KA3; details: at 10 µM
[15] = molecular target: Bone morphogenetic protein receptor type-1A (Homo sapiens, UniProt P36894); assay: Selectivity interaction (ProQinase) EUB0000171b BMPR1A
Chain of Bone morphogenetic protein receptor type-1A (P36894 whole entry): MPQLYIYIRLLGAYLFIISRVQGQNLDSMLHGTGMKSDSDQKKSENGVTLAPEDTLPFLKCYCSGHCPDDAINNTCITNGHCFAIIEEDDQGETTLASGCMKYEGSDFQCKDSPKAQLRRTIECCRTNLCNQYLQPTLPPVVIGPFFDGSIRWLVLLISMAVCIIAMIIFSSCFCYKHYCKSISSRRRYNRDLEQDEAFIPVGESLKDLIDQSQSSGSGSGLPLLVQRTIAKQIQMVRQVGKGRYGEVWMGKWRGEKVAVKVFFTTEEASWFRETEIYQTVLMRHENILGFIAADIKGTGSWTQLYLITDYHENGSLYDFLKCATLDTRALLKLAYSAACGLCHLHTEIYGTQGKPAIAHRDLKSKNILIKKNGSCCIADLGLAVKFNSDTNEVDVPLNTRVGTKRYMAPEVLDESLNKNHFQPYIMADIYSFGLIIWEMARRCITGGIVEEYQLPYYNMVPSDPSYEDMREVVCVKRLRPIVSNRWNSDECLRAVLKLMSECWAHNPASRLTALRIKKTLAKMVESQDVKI

[16] = molecular target: Serine/threonine-protein kinase 26 (Homo sapiens, UniProt Q9P289); assay: Selectivity interaction (ProQinase) EUB0000171b STK26
Chain of Serine/threonine-protein kinase 26 (Q9P289 2-416 limits assumed): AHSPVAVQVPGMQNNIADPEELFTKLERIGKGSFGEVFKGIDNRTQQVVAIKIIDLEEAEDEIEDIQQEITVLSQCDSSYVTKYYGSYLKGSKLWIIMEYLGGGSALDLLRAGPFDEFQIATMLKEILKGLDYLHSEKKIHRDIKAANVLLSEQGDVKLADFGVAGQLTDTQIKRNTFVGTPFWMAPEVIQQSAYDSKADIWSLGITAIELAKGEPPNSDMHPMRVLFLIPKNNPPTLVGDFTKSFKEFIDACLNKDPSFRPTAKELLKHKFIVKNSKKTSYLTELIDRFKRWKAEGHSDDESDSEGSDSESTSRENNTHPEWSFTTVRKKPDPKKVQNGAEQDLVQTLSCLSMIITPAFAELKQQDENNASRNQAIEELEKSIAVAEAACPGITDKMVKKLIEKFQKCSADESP

[17] = molecular target: MAP kinase-activated protein kinase 2 (Homo sapiens, UniProt P49137); assay: Selectivity interaction (KinomeScan (DiscoverX)) EUB0001049a MAPKAPK2; details: at 1 µM
Chain of MAP kinase-activated protein kinase 2 (P49137 whole entry, looked up): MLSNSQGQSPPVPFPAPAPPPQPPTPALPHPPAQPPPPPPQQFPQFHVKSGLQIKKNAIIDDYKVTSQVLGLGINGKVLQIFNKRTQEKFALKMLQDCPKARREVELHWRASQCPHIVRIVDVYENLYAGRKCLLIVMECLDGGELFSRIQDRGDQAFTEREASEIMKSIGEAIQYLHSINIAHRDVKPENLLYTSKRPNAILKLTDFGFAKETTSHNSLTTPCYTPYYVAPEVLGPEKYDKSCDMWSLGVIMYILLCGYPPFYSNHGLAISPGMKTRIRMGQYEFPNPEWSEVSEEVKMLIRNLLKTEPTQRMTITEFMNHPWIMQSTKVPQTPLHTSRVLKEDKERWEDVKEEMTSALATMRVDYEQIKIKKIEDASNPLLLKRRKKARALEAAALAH

[18] = molecular target: Ribosomal protein S6 kinase alpha-6 (Homo sapiens, UniProt Q9UK32); assay: Selectivity interaction (KinomeScan (DiscoverX)) EUB0001049a RPS6KA6; details: at 1 µM
[19] = molecular target: Calcium/calmodulin-dependent protein kinase type 1G (Homo sapiens) (UniProt Q96NX5); assay: Selectivity interaction (KinomeScan (DiscoverX)) EUB0000666a CAMK1G; details: at 10 µM
Chain of Calcium/calmodulin-dependent protein kinase type 1G (Homo sapiens) (Q96NX5 whole entry): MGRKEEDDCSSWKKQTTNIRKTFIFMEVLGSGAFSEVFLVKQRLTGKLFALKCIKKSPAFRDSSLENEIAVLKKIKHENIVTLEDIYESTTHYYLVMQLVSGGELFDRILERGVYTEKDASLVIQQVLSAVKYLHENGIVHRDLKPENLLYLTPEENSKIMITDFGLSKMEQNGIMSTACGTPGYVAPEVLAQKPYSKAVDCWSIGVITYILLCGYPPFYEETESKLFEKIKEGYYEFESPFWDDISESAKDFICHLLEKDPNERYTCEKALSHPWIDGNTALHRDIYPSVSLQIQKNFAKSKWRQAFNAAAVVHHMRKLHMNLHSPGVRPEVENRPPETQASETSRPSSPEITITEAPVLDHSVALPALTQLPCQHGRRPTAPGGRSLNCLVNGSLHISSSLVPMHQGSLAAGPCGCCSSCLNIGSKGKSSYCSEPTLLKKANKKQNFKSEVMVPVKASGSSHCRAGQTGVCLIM

[20] = molecular target: cAMP-dependent protein kinase catalytic subunit beta (Homo sapiens) (UniProt P22694); assay: Selectivity interaction (KinomeScan (DiscoverX)) EUB0000092b PRKACB; details: at 10 µM
[21] = molecular target: Serine/threonine-protein kinase SIK2 (Homo sapiens) (UniProt Q9H0K1); assay: Selectivity interaction (Kinase panel (Z-LYTE Assay)) EUB0001632a SIK2; details: at 10 µM
[22] = molecular target: Serine/threonine-protein kinase MRCK gamma (Homo sapiens) (UniProt Q6DT37); assay: Selectivity interaction (Kinase panel (Z-LYTE Assay)) EUB0001632a CDC42BPG; details: at 10 µM
[23] = tested on: Platelet-derived growth factor receptor alpha (Homo sapiens), P16234 [V561D]; assay: (§1) Selectivity interaction (Kinase panel (Z-LYTE Assay)) EUB0001632a PDGFRA; details: at 10 µM
Chain of Platelet-derived growth factor receptor alpha (Homo sapiens), P16234 [V561D] (P16234 whole entry V561D): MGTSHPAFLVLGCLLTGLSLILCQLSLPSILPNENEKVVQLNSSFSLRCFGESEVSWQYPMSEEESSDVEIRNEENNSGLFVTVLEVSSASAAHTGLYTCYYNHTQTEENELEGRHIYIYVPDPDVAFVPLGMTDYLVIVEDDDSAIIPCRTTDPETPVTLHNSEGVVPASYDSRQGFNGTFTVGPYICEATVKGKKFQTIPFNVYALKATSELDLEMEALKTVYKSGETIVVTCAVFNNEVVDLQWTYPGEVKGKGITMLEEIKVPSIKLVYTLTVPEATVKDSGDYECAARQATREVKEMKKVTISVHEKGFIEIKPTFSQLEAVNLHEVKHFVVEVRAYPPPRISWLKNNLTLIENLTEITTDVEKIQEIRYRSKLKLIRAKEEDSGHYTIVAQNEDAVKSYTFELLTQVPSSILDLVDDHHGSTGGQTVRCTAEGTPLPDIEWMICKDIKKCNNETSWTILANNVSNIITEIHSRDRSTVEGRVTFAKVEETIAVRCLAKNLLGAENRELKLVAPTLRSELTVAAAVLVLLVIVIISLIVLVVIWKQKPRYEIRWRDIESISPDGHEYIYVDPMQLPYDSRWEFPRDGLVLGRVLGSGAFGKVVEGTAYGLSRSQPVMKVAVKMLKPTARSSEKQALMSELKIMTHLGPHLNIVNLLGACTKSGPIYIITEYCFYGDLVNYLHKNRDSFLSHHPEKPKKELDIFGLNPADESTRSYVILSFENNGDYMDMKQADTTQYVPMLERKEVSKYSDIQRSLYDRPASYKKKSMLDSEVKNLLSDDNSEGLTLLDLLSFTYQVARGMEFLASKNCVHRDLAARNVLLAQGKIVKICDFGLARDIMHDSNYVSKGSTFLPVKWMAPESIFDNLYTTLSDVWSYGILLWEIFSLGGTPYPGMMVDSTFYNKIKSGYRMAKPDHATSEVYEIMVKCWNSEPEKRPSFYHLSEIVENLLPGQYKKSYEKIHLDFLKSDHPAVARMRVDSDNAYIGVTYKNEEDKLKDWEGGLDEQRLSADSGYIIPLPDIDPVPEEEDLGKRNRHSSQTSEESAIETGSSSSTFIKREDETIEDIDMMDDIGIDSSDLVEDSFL

[24] = molecular target: Platelet-derived growth factor receptor alpha (Homo sapiens, UniProt P16234); assay: as §1; details: at 10 µM
[25] = tested on: Platelet-derived growth factor receptor alpha (Homo sapiens), P16234 [D842V]; assay: as §1; details: at 10 µM
[26] = tested on: Platelet-derived growth factor receptor alpha (Homo sapiens), P16234 [T674I]; assay: as §1; details: at 10 µM

Chain of Serine/threonine-protein kinase PAK 1 (Homo sapiens) (Q13153 whole entry): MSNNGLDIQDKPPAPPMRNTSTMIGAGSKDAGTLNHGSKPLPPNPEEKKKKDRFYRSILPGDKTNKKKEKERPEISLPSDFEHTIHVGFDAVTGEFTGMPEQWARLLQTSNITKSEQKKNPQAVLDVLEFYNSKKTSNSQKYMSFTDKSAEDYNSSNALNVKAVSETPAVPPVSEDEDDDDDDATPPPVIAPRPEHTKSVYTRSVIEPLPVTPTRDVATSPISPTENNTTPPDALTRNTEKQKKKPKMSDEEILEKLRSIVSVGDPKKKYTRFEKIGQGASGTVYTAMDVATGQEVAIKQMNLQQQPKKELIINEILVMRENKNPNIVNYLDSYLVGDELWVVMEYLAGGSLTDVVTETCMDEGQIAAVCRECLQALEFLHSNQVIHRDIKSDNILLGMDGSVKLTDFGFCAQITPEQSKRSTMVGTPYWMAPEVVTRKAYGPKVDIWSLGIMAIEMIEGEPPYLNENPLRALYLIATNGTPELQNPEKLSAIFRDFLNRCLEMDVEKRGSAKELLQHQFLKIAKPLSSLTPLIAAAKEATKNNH

Structure (SMILES): Nc1cnc(N2CCc3cc(S(=O)(=O)Nc4c(F)cc(Cl)cc4F)cc(N4CCCC4=O)c32)nc1 [TP-020n]
% of control [1]: 89%
% of control [2]: 100%
% of control [3]: 100%

Structure (SMILES): N#Cc1cccc(-c2c[nH]c3ncnc(N4CCOCC4)c23)c1
% of inhibition [4]: 7%
% of control [5]: 93%
% of control [6]: 73%

Structure (SMILES): C=CC(=O)Nc1cc(-n2c(=O)ccc3cnc4ccc(-c5ccc(NS(C)(=O)=O)cc5)cc4c32)ccc1C
% of control ([7]; at 1 µM): 100%
% of control ([7]; at 10 µM): 96%

Structure (SMILES): Cc1ccc(-c2ccc3c(ccc4sc5c(c43)NC[C@@H](C)NC5=O)n2)cn1
% of inhibition [8]: 11%

% activity [9]: > 90%
Structure (SMILES): CNCCN1CCC(c2cc(CN(C)C(=O)c3cccc(Oc4ccccc4)c3)ccn2)CC1

Structure (SMILES): Cc1cc([C@@H](C)Nc2ccccc2C(=O)O)c2nc(N3CCOCC3)cc(=O)n2c1 [AZD-6482]
% of control [10]: 100%

% of inhibition [11]: 5.1%
% of inhibition [12]: -23.1%
Structure (SMILES): CC[C@@H]1[C@H](F)C(=O)N[C@@H]1COc1nccc2cc(C(N)=O)c(OC)cc12 [ZIMLOVISERTIB]

Structure (SMILES): COc1cc(N(C)c2ccnc3ccc(C(F)(F)F)cc23)cc(OC)c1OC
% binding [13]: 83%
% binding [14]: 95%

% of control ([15]; at 1 µM): 83%
% of control ([15]; at 5 µM): 88%
% of control ([16]; at 1 µM): 94%
% of control ([16]; at 5 µM): 97%
Structure (SMILES): C=CC(=O)Nc1cccc(C(=O)Nc2ccc(Nc3cc(-c4[nH]c(SC)nc4C)ccn3)cc2)c1

Structure (SMILES): COc1cc(Nc2nc(C)cc(-c3cnn4nc(OC)ccc34)n2)cc(C(F)(F)F)c1
% of control [17]: 52%
% of control [18]: 82%

Structure (SMILES): O=C(NOC[C@H](O)CO)c1ccc(F)c(F)c1Nc1ccc(I)cc1F
% of control [19]: 100%

Structure (SMILES): CCC(=O)N1CCN(c2ccc(-n3c(=O)ccc4cnc5ccc(-c6cnc7ccccc7c6)cc5c43)cc2C(F)(F)F)CC1
% of control [20]: 100%

% of control [21]: 5.35%
% of control [22]: 2.69%
% of control [23]: 19.4%
% of control [24]: 8.82%
% of control [25]: 7.9%
% of control [26]: 4.9%
Structure (SMILES): Cn1cc(-n2cnc3c(NCc4nc5cc(Cl)c(Cl)cc5[nH]4)nc(N4CCOCC4)nc32)cn1
